Measured values published in patent US20180168208A1 (priority 2014, published 2018).
Counter-ions that a name gives are not always drawn. Like-named read-outs stand apart in the source and are kept apart here.

Tests used:
[1] = target: T1R1/T1R3 receptor (Felis catus, UniProt E3UMS2); test: cell-based; conditions: for Max resp % of Ala, +IMP (0.2 mM): in the presence of 0.2 mM IMP, relative to alanine; for Thres (mM), +IMP (0.2 mM): threshold concentration in the presence of 0.2 mM IMP
Excerpt: (§1) HEK293 cells that stably express T1R3 and inducibly express T1R1 were exposed to nucleotide derivatives alone to activate the umami receptor. Activation of the T1R1/T1R3 receptor was detected by a change in intracellular calcium levels using a calcium sensitive fluorescent dye. Cells that express T1R3 but not T1R1 were used as a control. A FLIPR® Tetra or a FlexStation® 3 was used for data capture.
as §1, with “alone or in combination with one or more amino acids and/or one or more nucleotides” for “alone”, “dye and/or a luminescent reporter system.” for “dye.”
as §1, with “transmembrane compounds” for “nucleotide derivatives”, “alone or in combination with one or more amino acids and/or one or more nucleotides” for “alone”
In each experiment, serial dilutions of up to 10 mM of the transmembrane compound were added to the T1R1/T1R3-expressing cells.

[2] = target: T1, cat T1R1/T1R3 receptor (Felis catus, UniProt A0ABI7Z2I4); test: cell-based; conditions: for function as activators of T1R1/T1R3 (in words): in the presence of alanine
T1 sequence (A0ABI7Z2I4 171-420): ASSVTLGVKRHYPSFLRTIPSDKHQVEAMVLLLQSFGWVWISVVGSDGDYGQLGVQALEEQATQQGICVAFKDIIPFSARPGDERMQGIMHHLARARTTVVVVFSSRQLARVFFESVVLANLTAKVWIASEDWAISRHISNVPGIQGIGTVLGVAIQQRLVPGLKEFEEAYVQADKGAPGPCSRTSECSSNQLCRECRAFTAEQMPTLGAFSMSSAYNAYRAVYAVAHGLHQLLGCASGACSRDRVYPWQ
T1 sequence (Q49KI5 25-865 E206Q/N523D/F654L partner): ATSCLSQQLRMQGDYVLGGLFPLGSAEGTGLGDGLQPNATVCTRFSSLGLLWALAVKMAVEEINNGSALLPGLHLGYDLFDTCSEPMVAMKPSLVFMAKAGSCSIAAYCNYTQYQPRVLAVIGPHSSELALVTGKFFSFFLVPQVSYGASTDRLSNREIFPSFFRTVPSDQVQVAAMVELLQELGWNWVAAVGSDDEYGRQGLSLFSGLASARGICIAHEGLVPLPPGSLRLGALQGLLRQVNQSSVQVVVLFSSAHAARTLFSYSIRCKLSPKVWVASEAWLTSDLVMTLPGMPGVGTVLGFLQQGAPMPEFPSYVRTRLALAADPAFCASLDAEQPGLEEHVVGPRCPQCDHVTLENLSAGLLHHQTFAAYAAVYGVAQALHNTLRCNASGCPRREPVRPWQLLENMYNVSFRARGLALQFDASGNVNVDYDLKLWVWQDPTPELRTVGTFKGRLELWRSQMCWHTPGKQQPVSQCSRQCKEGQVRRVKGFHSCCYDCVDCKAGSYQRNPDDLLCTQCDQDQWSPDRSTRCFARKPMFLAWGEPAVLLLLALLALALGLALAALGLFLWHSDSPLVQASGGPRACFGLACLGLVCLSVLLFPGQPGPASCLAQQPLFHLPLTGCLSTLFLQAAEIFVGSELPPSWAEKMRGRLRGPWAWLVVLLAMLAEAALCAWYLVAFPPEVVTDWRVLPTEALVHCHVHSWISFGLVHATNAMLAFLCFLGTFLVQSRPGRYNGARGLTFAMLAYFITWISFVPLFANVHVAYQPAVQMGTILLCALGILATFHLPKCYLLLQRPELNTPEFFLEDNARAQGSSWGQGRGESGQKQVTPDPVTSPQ
Excerpt: as §1, with “alone or in combination with one or more amino acids and/or one or more nucleotides” for “alone”, “dye and/or a luminescent reporter system.” for “dye.”

[3] = threshold amount that results in activation of T1R1/T1R3, 20 mM alanine

SMILES	Threshold [2] [mM]	Activity [2]	EC50 [2] [µM]	further results
O=C(O)C1CCCCC1C(=O)Nc1cc(Cl)cc(Cl)c1 (centres unmarked)	–	–	–	EC50 [1]: 0.49 ± 0.01 mM; EC50 ([1]; T1R1/T1R3 EC50 +0.2 mM IMP, +0.2 mM IMP): 0.18 ± 0.01 mM; EC50 ([1]; alone in buffer, read-out: T1R1/T1R3 EC50 alone in buffer): 0.37 ± 0.05 mM
CC(C)CC(NC(=O)c1ccccc1)C(N)=O (racemic)	–	–	–	Max resp % of IMP, +Alanine (20 mM) [1]: 125.5%; Thres (mM), +Alanine (20 mM) [1]: 0.3 mM; EC50 ([1]; EC50 (mM), +Alanine (20 mM) + IMP (0.2 mM), in the presence of 20 mM alanine and 0.2 mM IMP): 0.91 mM; Max resp % of Ala, +IMP (0.2 mM) [1]: 204.5%; Thres (mM), +IMP (0.2 mM) [1]: 0.1 mM
O=C(O)C1CCCCC1C(=O)Nc1cc(Cl)cc(Cl)c1 (centres unmarked) [2-((3,5-dichlorophenyl)carbamoyl)cyclohexanecarboxylic acid]	–	–	–	Max resp % of IMP, +Alanine (20 mM) [1]: 163.5%; Thres (mM), +Alanine (20 mM) [1]: 0.1 mM; Max resp % of Ala, +IMP (0.2 mM) [1]: 157.9%; Thres (mM), +IMP (0.2 mM) [1]: 0.03 mM
Nc1nc2c(ncn2[C@@H]2O[C@H](COP(=O)(O)O)[C@@H](O)[C@H]2O)c(=S)[nH]1 [6-Thiogaunosine-5′-O-monophosphate]	–	–	–	Max resp. (ΔF/F) [2]: 1.3614 ΔF/F; Max. resp. % of IMP [2]: 140.6 % of IMP
Nc1nc2c(ncn2[C@@H]2O[C@H](COP(=O)(O)OP(=O)(O)O)[C@@H](O)[C@H]2O)c(=S)[nH]1 [6-Thioguanosine-5′-O-disphosphate]	0.03	–	–	–
Nc1nc2c(ncn2[C@@H]2O[C@H](COP(=O)(O)O)[C@@H](O)[C@H]2O)c(=S)[nH]1 [6-Thioguanosine-5′-O-monophosphate]	–	active	–	–
O=P(O)(O)OCC1OC(n2cnc3c(Cl)ncnc32)C(O)C1O (centres unmarked) [6-chloropurineriboside-5′-O-monophosphate]	0.0005	–	2	function as activators of T1R1/T1R3 (in words) [2]: activators of the T1R1/T1R3 receptor
Nc1nc2c(ncn2[C@@H]2O[C@H](COP(=O)(O)O)[C@@H](O)[C@H]2O)c(=S)[nH]1 [6-thioguanosine-5′-O-monophosphate]	0.0002	–	0.9	function as activators of T1R1/T1R3 (in words) [2]: activators of T1R1/T1R3
Nc1nc2c(nc(Br)n2[C@@H]2O[C@H](COP(=O)(O)O)[C@@H](O)[C@H]2O)c(=O)[nH]1 [8-Bromoguanosine-5′-O-monophosphate]	1	active	–	Max resp. (ΔF/F) [2]: 0.375 ΔF/F; Max. resp. % of IMP [2]: 30.2 % of IMP
Nc1ncnc2c1nc(Cl)n2[C@@H]1O[C@H](COP(=O)(O)O)C(O)C1O (some centres unmarked) [8-Chloroadenosine-5′-O-monophosphate]	0.2	–	–	Max resp. (ΔF/F) [2]: 0.79 ΔF/F; Max. resp. % of IMP [2]: 63.6 % of IMP; Activity ([2]; +Alanine (20 mM)): active
Nc1ncnc2c1ncn2C1OC(COP(=O)(O)O)C(OP(=O)(O)O)C1O (centres unmarked) [Adenosine 3′,5′-diphosphate sodium salt, adenosine 3′, 5′ diphosphate sodium salt]	0.00025	active	–	–
Nc1ncnc2c1ncn2C1OC(COP(=O)(O)OS(=O)(=O)O)C(O)C1O (centres unmarked) [Adenosine 5′-phosphosulfate sodium salt, Adenosine 5′-phosphosulfate]	0.008	–	–	–
Nc1ncnc2c1ncn2[C@@H]1O[C@H](COP(O)(O)=S)[C@@H](O)[C@H]1O [Adenosine-5′-O-monophosphorothioate]	0.003	active	11	–
Nc1nc2c(ncn2[C@@H]2O[C@H](COP(=O)(O)OP(=O)(O)O)[C@@H](O)[C@H]2O)c(=O)[nH]1 [Guanosine 5′-diphosphate sodium salt, Guanosine 5′-diphosphate]	0.050	active	200	–
Nc1nc2c(ncn2C2OC(COP(=O)(O)N3CCOCC3)C(O)C2O)c(=O)[nH]1 (centres unmarked) [Guanosine 5′-monophosphomorpholidate 4-morpholine-N,N′-dicyclohexylcarboxamidine salt]	–	–	–	Activity ([2]; +Alanine (20 mM)): active; Max. resp. % of IMP ([2]; maximum response in relation to the response with IMP, 20 mM alanine): 52.9 % of IMP; Max resp. (ΔF/F) ([2]; maximum response of the receptor, 20 mM alanine): 0.5121 ΔF/F; Threshold [2, 3]: 0.325 mM
Nc1nc2c(ncn2[C@@H]2O[C@H](COP(=O)(O)OP(=O)(O)OP(=O)(O)O)[C@@H](O)[C@H]2O)c(=O)[nH]1 [Guanosine 5′-triphosphate]	0.175	active	700	Max resp. (ΔF/F) [2]: 1.8075 ΔF/F; Max. resp. % of IMP [2]: 145.5 % of IMP
Nc1nc2c(ncn2[C@@H]2O[C@H](COP(O)(O)=S)[C@@H](O)[C@H]2O)c(=O)[nH]1 [Guanosine-5′-monophosphorothioate]	0.0025	active	10	Max resp. (ΔF/F) [2]: 1.29 ΔF/F; Max. resp. % of IMP [2]: 103.8 % of IMP; function as activators of T1R1/T1R3 (in words) [2]: activators of T1R1/T1R3
O=c1[nH]cnc2c1ncn2C1OC(COP(=O)(O)OP(=O)(O)O)C(O)C1O (centres unmarked) [Inosine 5′-diphosphate (IDP) sodium salt, inosine 5′-diphosphate (IDP) sodium salt]	–	active	–	Max resp. (ΔF/F) [2]: 0.3 ΔF/F; Max. resp. % of IMP [2]: 33.3 % of IMP; Threshold [2, 3]: 0.1625 mM
CNc1ncnc2c1ncn2[C@H]1C[C@H](OP(=O)(O)O)[C@@H](COP(=O)(O)O)O1 [MRS 2179 ammonium salt hydrate, 2′-Deoxy-N^6-methyl adenosine 3,5′-diphosphate diammonium salt]	–	active	–	–
O=P(O)(O)OC[C@H]1O[C@@H](n2cnc3c(NC4CCCC4)ncnc32)[C@H](O)[C@@H]1O [N6-Cyclopentyladenosine-5′-O-monophosphate]	0.013	active	–	–
CNc1ncnc2c1ncn2[C@@H]1O[C@H](COP(=O)(O)O)[C@@H](O)[C@H]1O [N6-Methyladenosine 5′-monophosphate]	0.020	–	–	Activity ([2]; +Alanine (20 mM)): active
O=P(O)(O)OC[C@H]1O[C@@H](n2cnc3cncnc32)[C@H](O)[C@@H]1O [Purine riboside-5′-O-monophosphate, reference compound]	0.005	active	–	–
NC(=O)c1ncn(C2OC(COP(=O)(O)O)C(O)C2O)n1 (centres unmarked) [Ribavirin 5′-Monophosphate]	0.175	active	–	–
O=c1ccn([C@@H]2O[C@H](COP(=O)(O)O)[C@@H](O)[C@H]2O)c(=O)[nH]1 [UMP, uridine monophosphate, reference compound]	–	–	> 30000	–
Nc1ncnc2c1ncn2[C@@H]1O[C@H](COP(=O)(O)O)[C@@H](O)[C@H]1O [adenosine monophosphate (AMP), adenosine monophosphate, reference compound]	–	–	11	–
Nc1ncnc2c1ncn2[C@@H]1O[C@H](COP(=O)(O)O)[C@@H](O)[C@H]1O [adenosine monophosphate]	0.003	active	–	–
O=P(O)(O)OP(=O)(O)OP(=O)(O)OC[C@H]1O[C@@H](n2cnc3c(O)ncnc32)[C@H](O)[C@@H]1O [inosine triphosphate (ITP), inosine triphosphate]	–	–	80	–
O=c1[nH]c(=O)c2ncn([C@@H]3O[C@H](COP(=O)(O)O)[C@@H](O)[C@H]3O)c2[nH]1 [xanthosine monophosphate]	0.025	active	–	–
